Reference: PMC7515946, “Targeting of Perforin Inhibitor into the Brain Parenchyma Via a Prodrug Approach Can Decrease Oxidative Stress and Neuroinflammation and Improve Cell Survival” (Molecular Neurobiology, 2020)

Tests used:
[1] = biological target: T1, purified human β-site amyloid precursor protein (APP) cleaving enzyme 1 (BACE1) (Homo sapiens, UniProt P56817); assay: BACE1 FRET inhibition assay; type: biochemical; conditions: 1 and 10 μM, respectively, 30 min
T1 construct: purchased AnaSpec, Inc. (Fremont, CA, USA), SensoLyte 520 BACE1 Assay kit
Description: A fluorometric assay was used to screen the inhibitory effect of the studied compounds on purified human β-site amyloid precursor protein (APP) cleaving enzyme 1 (BACE1) using a fluorescence resonance energy transfer (FRET) peptide technique (SensoLyte© 520 BACE1 Assay kit, AnaSpec, Inc., Fremont, CA, USA) according to the manufacturer’s protocol. […] The sequence of the FRET peptide has been derived from the β-secretase cleavage site of β-amyloid precursor protein (APP) with Swedish mutation, which enhances β-secretase to process APP resulting in an early onset of AD. Thus, active β-secretase cleaved the FRET substrate into two separate fragments resulting in the release of HiLyte™ Fluor 488 fluorescence that was measured by the Envision plate reader (EnVision, Perkin Elmer, Waltham, MA, USA) at λex 490 nm and λem 520 nm.

[2] = set-up: method as in PMID 26705152; conditions: cited from earlier work
[3] = set-up: method as in PMID 26705152; conditions: cited from earlier work; remark: listed apart in the source
[4] = set-up: method as in PMID 31492955; conditions: cited from earlier work

T1 sequence (P56817 22-501 limits assumed): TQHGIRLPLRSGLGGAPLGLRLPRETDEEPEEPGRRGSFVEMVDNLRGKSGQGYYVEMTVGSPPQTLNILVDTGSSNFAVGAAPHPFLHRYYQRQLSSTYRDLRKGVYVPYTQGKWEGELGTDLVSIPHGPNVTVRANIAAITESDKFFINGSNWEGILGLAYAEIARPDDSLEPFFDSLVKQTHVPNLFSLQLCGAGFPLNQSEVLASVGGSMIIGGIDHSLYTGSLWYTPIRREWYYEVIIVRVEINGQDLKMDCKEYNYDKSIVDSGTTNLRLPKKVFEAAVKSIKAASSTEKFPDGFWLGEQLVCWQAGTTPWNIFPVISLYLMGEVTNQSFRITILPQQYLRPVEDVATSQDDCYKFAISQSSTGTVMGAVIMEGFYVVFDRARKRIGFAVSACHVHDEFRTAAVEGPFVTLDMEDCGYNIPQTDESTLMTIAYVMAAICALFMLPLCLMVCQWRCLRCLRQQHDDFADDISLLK

Row | SMILES | Inhibition of BACE1 activity [1] | Bioconversion half-life in rat liver S9 subcellular fraction [2] | Stability in human plasma [3] | Bioconversion half-life in primary mouse astrocyte homogenate [4]
1 | O=C1OCc2cc(-c3ccc(-c4ccc(CO)cc4)s3)ccc21 [PFI] | 71–96% |  |  | 
2 | N[C@H](Cc1cccc(C(=O)OCc2ccc(-c3ccc(-c4ccc5c(c4)COC5=O)s3)cc2)c1)C(=O)O [PFI-PD] |  | approximately 55 min | completely stable | approximately 6 h
